Here are results for 20 compounds from patent publication US20240317758A1 (Halia Therapeutics, Inc., priority 2021, published 2024).

The target of the assay is T1, full-length recombinant human NEK7 (Homo sapiens, UniProt Q8TDX7).
T1 construct: full-length recombinant human NEK7; GST (N); purchased SignalChem NO9-10G; host or cells: Sf9 insect cells (baculovirus)
In words: NEK7 enzymatic assay. The class given is biochemical. To be noted: recombinant human NEK7, casein substrate, radiolabelled ATP. The procedure: Casein substrate (from bovine milk, hydrolyzed and partially dephosphorylated mixture of α, β and κ caseins, obtained from Sigma Aldrich, catalogue #C4765, diluted in distilled water to a final concentration of 1 mg/mL) and full-length recombinant human NEK7 (expressed by baculovirus in Sf9 insect cells using a N-terminal GST tag, obtained from SignalChem, catalogue #NO9-10G, 0.1 μg/μL) were mixed in assay buffer (20 mM Hepes pH 7.5, 10 mM MgCl2, 1 mM EGTA, 0.02% Brij35, 0.02 mg/ml BSA, 0.1 mM Na3VO4, 2 mM DTT, 1% DMSO). Compounds of interest (serial 3-fold dilution in DMSO from 10 μM to 0.5 nM) or vehicle (1% DMSO) were dispensed into the kinase reaction mixture by Acoustic technology (Echo550; nanoliter range). After incubation at room temperature for 20 minutes, the kinase reaction was initiated by addition of [^33P]-ATP (specific activity 10 μCi/μl) and the mixture was incubated at room temperature for 2 hours. The reaction was then stopped by spotting the reaction mixture on strips of phosphocellulose P81 paper. Following washing, the radioactivity of the P81 paper was measured and kinase activity data were expressed as the percent remaining kinase activity in test samples compared to vehicle reactions. IC50 values and curve fits were obtained using Prism (GraphPad Software).
Casein substrate (from bovine milk, hydrolyzed and partially dephosphorylated mixture of α, β and κ caseins, obtained from Sigma Aldrich, catalogue #C4765, diluted in distilled water to a final concentration of 1 mg/mL, assay concentration 20 μM) and full-length recombinant human Nek7 (expressed by baculovirus in Sf9 insect cells using a N-terminal GST tag, obtained from SignalChem, catalogue #NO9-10G, 0.1 μg/μL, assay concentration 70 nM) were mixed in assay buffer (20 mM Hepes pH 7.5, 10 mM MgCl2, 1 mM EGTA, 0.02% Brij35, 0.02 mg/ml BSA, 0.1 mM […], 2 mM DTT, 1% DMSO). Compounds of interest (in DMSO, serial 3-fold dilution from 10 μM to 0.5 nM) or control (1% DMSO) were dispensed into the kinase reaction mixture by Acoustic technology (Echo550; nanoliter range). After incubation at room temperature for 20 minutes, the kinase reaction was initiated by addition of [^32P]-ATP (Specific activity 10 μCi/μl) and the mixture was incubated at room temperature for 2 hours. The reaction was then stopped by spotting the reaction mixture on strips of phosphocellulose P81 paper. Following washing, the radioactivity of the P81 paper was measured and kinase activity data were expressed as the percent remaining kinase activity in test samples compared to vehicle (dimethyl sulfoxide) reactions. IC50 values and curve fits were obtained using Prism (GraphPad Software).

SMILES strings stand for the structures. A value given as a limit tells only on which side of the number the result lay.

T1 sequence (Q8TDX7 whole entry): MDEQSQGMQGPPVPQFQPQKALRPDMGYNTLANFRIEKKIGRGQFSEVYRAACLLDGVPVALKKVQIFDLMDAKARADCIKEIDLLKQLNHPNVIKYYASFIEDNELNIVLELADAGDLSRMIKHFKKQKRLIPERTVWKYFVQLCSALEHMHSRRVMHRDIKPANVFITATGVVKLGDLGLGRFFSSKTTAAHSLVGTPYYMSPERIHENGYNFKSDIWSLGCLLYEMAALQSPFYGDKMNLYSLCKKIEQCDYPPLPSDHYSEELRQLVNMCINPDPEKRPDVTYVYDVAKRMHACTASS

Regarding `CN1CCCN(Cc2ccc(NC(=O)Nc3ccc(-c4cn(C5CC5)c5ncnc(N)c45)cc3F)cc2C(F)(F)F)CC1` [Example I-44, 1-(4-(4-amino-7-cyclopropyl-7H-pyrrolo[2,3-d]pyrimidin-5-yl)-2-fluorophenyl)-3-(4-((4-methyl-1,4-diazepan-1-yl)methyl)-3-(trifluoromethyl)phenyl)urea], the IC50 was less than 100 nM.

On to `CCN1CCN(Cc2ccc(NC(=O)Nc3ccc(-c4cn(C5CC5)c5ncnc(N)c45)cc3Cl)cc2C(F)(F)F)CC1` [Example I-55, 1-(4-(4-amino-7-cyclopropyl-7H-pyrrolo[2,3-d]pyrimidin-5-yl)-2-chlorophenyl)-3-(4-((4-ethylpiperazin-1-yl)methyl)-3-(trifluoromethyl)phenyl)urea], for which the IC50 is 100 to 500 nM.

With `CN1CC2CC1CN2Cc1ccc(NC(=O)Nc2ccc(-c3cn(C4CC4)c4ncnc(N)c34)cc2F)cc1C(F)(F)F` (centres unmarked) [Example I-64, 1-(4-(4-amino-7-cyclopropyl-7H-pyrrolo[2,3-d]pyrimidin-5-yl)-2-fluorophenyl)-3-(4-((5-methyl-2,5-diazabicyclo[2.2.1]heptan-2-yl)methyl)-3-(trifluoromethyl)phenyl)urea], the IC50 is less than 100 nM.

As for `CN1CCN(Cc2ccc(NC(=O)Nc3ncc(-c4cn(C5CC5)c5ncnc(N)c45)cc3F)cc2C(F)(F)F)CC1` [Example I-67, 1-(5-(4-amino-7-cyclopropyl-7H-pyrrolo[2,3-d]pyrimidin-5-yl)-3-fluoropyridin-2-yl)-3-(4-((4-methylpiperazin-1-yl)methyl)-3-(trifluoromethyl)phenyl)urea], the IC50 was in the range of 100 to 500 nM.

For the compound `CN(C)C1CCN(Cc2ccc(NC(=O)Nc3ccc(-c4cn(C5CC5)c5ncnc(N)c45)cc3F)cc2C(F)(F)F)CC1` [Example I-69], the 50% inhibitory concentration (IC50) was less than 100 nM.

As for `CC1CN(C)CCN1Cc1ccc(NC(=O)Nc2ccc(-c3cn(C4CC4)c4ncnc(N)c34)cc2F)cc1C(F)(F)F` (centres unmarked) [Example I-70, 1-(4-(4-amino-7-cyclopropyl-7H-pyrrolo[2,3-d]pyrimidin-5-yl)-2-fluorophenyl)-3-(4-((2,4-dimethylpiperazin-1-yl)methyl)-3-(trifluoromethyl)phenyl)urea], the IC50 was in the range of 100 to 500 nM.

With `CN1CCN(Cc2ccc(NC(=O)Nc3ccc(-c4cn(CCO)c5ncnc(N)c45)cc3F)cc2C(F)(F)F)CC1` [Example I-71, 1-(4-(4-amino-7-(2-hydroxyethyl)-7H-pyrrolo[2,3-d]pyrimidin-5-yl)-2-fluorophenyl)-3-(4-((4-methylpiperazin-1-yl)methyl)-3-(trifluoromethyl)phenyl)urea], the IC50 is less than 100 nM.

As for `CN1CCN(Cc2ccc(NC(=O)Nc3ccc(-c4cn(C5CC5)c5ncnc(N)c45)cc3F)cc2C(F)(F)F)CC12CC2` [Example I-73, 1-(4-(4-amino-7-cyclopropyl-7H-pyrrolo[2,3-d]pyrimidin-5-yl)-2-fluorophenyl)-3-(4-((4-methyl-4,7-diazaspiro[2.5]octan-7-yl)methyl)-3-(trifluoromethyl)phenyl)urea], the IC50 fell in the range of 500 to 2000 nM.

In the case of `CNC1CCN(Cc2ccc(NC(=O)Nc3ccc(-c4cn(C5CC5)c5ncnc(N)c45)cc3F)cc2C(F)(F)F)CC1` [Example I-74, 1-(4-(4-amino-7-cyclopropyl-7H-pyrrolo[2,3-d]pyrimidin-5-yl)-2-fluorophenyl)-3-(4-((4-(methylamino)piperidin-1-yl)methyl)-3-(trifluoromethyl)phenyl)urea], the IC50 fell in the range of 100 to 500 nM.

As to `Nc1ncnc2c1c(-c1ccc(NC(=O)Nc3ccc(CN4CCC(F)(F)CC4)c(C(F)(F)F)c3)c(F)c1)cn2C1CC1` [Example I-85, 1-(4-(4-amino-7-cyclopropyl-7H-pyrrolo[2,3-d]pyrimidin-5-yl)-2-fluorophenyl)-3-(4-((4,4-difluoropiperidin-1-yl)methyl)-3-(trifluoromethyl)phenyl)urea], the IC50 was greater than 2000 nM.

As to `Nc1ncnc2c1c(-c1ccc(NC(=O)Nc3ccc(CN4CCN(C5COC5)CC4)c(C(F)(F)F)c3)c(F)c1)cn2C1CC1` [Example I-86, 1-(4-(4-amino-7-cyclopropyl-7H-pyrrolo[2,3-d]pyrimidin-5-yl)-2-fluorophenyl)-3-(4-((4-(oxetan-3-yl)piperazin-1-yl)methyl)-3-(trifluoromethyl)phenyl)urea], the IC50 fell in the range of 100 to 500 nM.

`CCN1CCC(Oc2ccc(NC(=O)Nc3ccc(-c4cn(C5CC5)c5ncnc(N)c45)cc3F)cc2C(F)(F)F)CC1` [Example I-88, 1-(4-(4-amino-7-cyclopropyl-7H-pyrrolo[2,3-d]pyrimidin-5-yl)-2-fluorophenyl)-3-(4-((1-ethylpiperidin-4-yl)oxy)-3-(trifluoromethyl)phenyl)urea]: the IC50 was less than 100 nM.

`CN1CCN(Cc2cc(NC(=O)Nc3ccc(-c4cn(C5CC5)c5ncnc(N)c45)cc3F)cc(C(F)(F)F)c2)CC1` [Example I-93, 1-(4-(4-amino-7-cyclopropyl-7H-pyrrolo[2,3-d]pyrimidin-5-yl)-2-fluorophenyl)-3-(3-((4-methylpiperazin-1-yl)methyl)-5-(trifluoromethyl)phenyl)urea]: the IC50 is less than 100 nM.

For `Nc1ncnc2c1c(-c1ccc(NC(=O)Nc3ccc(CN4CCCCC4)c(C(F)(F)F)c3)c(F)c1)cn2C1CC1` [Example I-95, 1-(4-(4-amino-7-cyclopropyl-7H-pyrrolo[2,3-d]pyrimidin-5-yl)-2-fluorophenyl)-3-(4-(piperidin-1-ylmethyl)-3-(trifluoromethyl)phenyl)urea], the IC50 lay in the range of 500 to 2000 nM.

`Nc1ncnc2c1c(-c1ccc(NC(=O)Nc3ccc(CN4CCC(O)CC4)c(C(F)(F)F)c3)c(F)c1)cn2C1CC1` [Example I-96, 1-(4-(4-amino-7-cyclopropyl-7H-pyrrolo[2,3-d]pyrimidin-5-yl)-2-fluorophenyl)-3-(4-((4-hydroxypiperidin-1-yl)methyl)-3-(trifluoromethyl)phenyl)urea]: the IC50 fell in the range of 100 to 500 nM.

With `Nc1ncnc2c1c(-c1ccc(NC(=O)Nc3ccc(CN4CCN(S(=O)(=O)C5CC5)CC4)c(C(F)(F)F)c3)c(F)c1)cn2C1CC1` [Example I-97, 1-(4-(4-amino-7-cyclopropyl-7H-pyrrolo[2,3-d]pyrimidin-5-yl)-2-fluorophenyl)-3-(4-((4-(cyclopropylsulfonyl)piperazin-1-yl)methyl)-3-(trifluoromethyl)phenyl)urea], the IC50 lay within 500 to 2000 nM.

Consider `CN1CCN(Cc2ccc(NC(=O)Nc3ccc(-c4nn(CCCCCO)c5ncnc(N)c45)cc3F)cc2C(F)(F)F)CC1` [Example I-103, 1-(4-(4-amino-1-(5-hydroxypentyl)-1H-pyrazolo[3,4-d]pyrimidin-3-yl)-2-fluorophenyl)-3-(4-((4-methylpiperazin-1-yl)methyl)-3-(trifluoromethyl)phenyl)urea], for which the IC50 was less than 100 nM.

With `CN1CCN(Cc2ccc(NC(=O)Nc3ccc(-c4cn(C5CN(C)C5)c5ncnc(N)c45)cc3F)cc2C(F)(F)F)CC1` [Example I-104, 1-(4-(4-amino-7-(1-methylazetidin-3-yl)-7H-pyrrolo[2,3-d]pyrimidin-5-yl)-2-fluorophenyl)-3-(4-((4-methylpiperazin-1-yl)methyl)-3-(trifluoromethyl)phenyl)urea], the IC50 is less than 100 nM.

`CC(C)n1cc(-c2ccc(NC(=O)Nc3ccc(CN4CCN(C)CC4)c(C(F)(F)F)c3)c(F)c2)c2c(N)ncnc21` [Example I-105, 1-(4-(4-amino-7-isopropyl-7H-pyrrolo[2,3-d]pyrimidin-5-yl)-2-fluorophenyl)-3-(4-((4-methylpiperazin-1-yl)methyl)-3-(trifluoromethyl)phenyl)urea]: the IC50 was less than 100 nM.

For `CN1CCN(Cc2ccc(NC(=O)Nc3ccc(-c4cn(CCC(=O)O)c5ncnc(N)c45)cc3F)cc2C(F)(F)F)CC1` [Example I-106, 3-(4-amino-5-(3-fluoro-4-(3-(4-((4-methylpiperazin-1-yl)methyl)-3-(trifluoromethyl)phenyl)ureido)phenyl)-7H-pyrrolo[2,3-d]pyrimidin-7-yl)propanoic acid], the IC50 was less than 100 nM.
